These are literature values, as cited in patent US6365170B1, “Use of a disinfectant for living fish” (USF Filtration & Separations Spa-Div. Perdomini, priority 1998, dated 2002).

The test system of this data set is salmon louse (Lepeophtheirus Salmonis). As to conditions: hydrogen peroxide around 1.5 g/l for longer than 20 minutes.

In the case of `OO` [hydrogen peroxide], the success percentage was roughly 100%.
